Experimental data as given in US20030096237A1, “Determination of the ability of patients to respond to a tumor treatment” (priority 2000, published 2003).

Assays:
Format in all cases: cell-based, human
CNCM I-2548 [1] = assay: HLA class I induction, flow-cytometry; conditions: two days with IFN-α 100 U/ml, absence 380
Protocol: (§1) Melanoma cell lines were screened for their sensitivity to proliferation inhibition and HLA class I induction. The study was done of six cell lines (CNCM I-2544, CNCM I-2545, CNCM I-2546, CNCM I-2547, CNCM I-2548 and CNCM I-2549).
(§2) All these cell lines were cultured in RPMI medium supplemented with 10% FCS, glutamine (2 mM), sodium pyruvate (1 mM), non-essential amino acids and HEPES buffer (10 mM) (all from GIBCO Life Sciences, Paisley, UK). When confluent, the cells were passaged by trypsinization.
(§3) A number of established melanoma cell lines were assayed for their sensitivity to IFN-α by testing the capacity of IFN-α to inhibit their proliferation and to increase their surface expression of HLA class I determinants.

CNCM I-2545 = assay: HLA class I induction, flow-cytometry; conditions: two days with IFN-α 100 U/ml, absence 196
Protocol: as §1, §2, §3

CNCM I-2549 = assay: HLA class I induction, flow-cytometry; conditions: two days with IFN-α 100 U/ml, absence 203
Protocol: as §1, §2, §3

CNCM I-2544 [2] = assay: HLA class I induction, flow-cytometry; conditions: two days with IFN-α 100 U/ml, absence 305
Protocol: as §1, §2, §3

CNCM I-2547 [3] = assay: HLA class I induction, flow-cytometry; conditions: two days with IFN-α 100 U/ml, absence 135
Protocol: as §1, §2, §3

CNCM I-2546 [4] = assay: HLA class I induction, flow-cytometry; conditions: two days with IFN-α 100 U/ml, absence 257
Protocol: as §1, §2, §3

CNCM I-2548 [5] = assay: proliferation inhibition, 3H-Thymidine incorporation; conditions: concentration inducing at least 50% inhibition of maximal proliferation
Protocol: as §1, §2, §3

CNCM I-2544 [6] = assay: as above; conditions: concentration inducing at least 50% inhibition of maximal proliferation
Protocol: as §1, §2, §3

CNCM I-2547 [7] = assay: as above; conditions: concentration inducing at least 50% inhibition of maximal proliferation
Protocol: as §1, §2, §3

CNCM I-2546 [8] = assay: as above; conditions: concentration inducing at least 50% inhibition of maximal proliferation
Protocol: as §1, §2, §3

melanoma cell lines = assay: oligonucleotide array, expression of genes encoding tumor associated antigens; conditions: six melanoma cell lines, 48 hours, 100 U/ml IFN-α
Protocol: The cell lines CNCM I-2544 (375), CNCM I-2545 (D10), CNCM I-2546 (15), CNCM I-2547 (51), CNCM I-2548 (59) and CNCM I-2549 (67) were cultured for 48 hours in the presence (+) or absence (−) of 100 U/ml IFN-α. The expression patterns of genes encoding tyrosinase, tyrosinase related protein-2 , pmel-17 and mart-1, HLA restricted, tumor associated antigens are reported. Grey bars refer to IFN-α sensitive cell lines and black bars refer to IFN-α resistant lines (see Table 1). Data are presented as average difference of signal intensity between match and mismatch probesets.
Cultured melanoma cells were harvested by scraping and total cellular RNA was extracted. […]
The normalized average difference (nAD) between the signals of the perfect and of the mismatch probesets for each gene was used as the expression level of a given gene. […] Based on nAD, change factors related to IFN-α exposure were also calculated. […]
Total cellular RNA was extracted from the sensitive and resistant melanoma cell lines identified above, reverse transcribed and processed for hybridization to an oligonucleotide array (Hu6800FL, PN 900183) containing probe sets derived from 7000 full-length human genes. Expression levels for each gene were calculated as normalized average difference (nAD, see materials and methods). […]

Substance: IFN-α
- HLA class I induction, mean fluorescence intensity (CNCM I-2548 [1]): (559 vs. 380)
- HLA class I induction, mean fluorescence intensity (CNCM I-2545): (184 vs. 196)
- HLA class I induction, mean fluorescence intensity (CNCM I-2549): (175 vs. 203)
- HLA class I induction, mean fluorescence intensity (CNCM I-2544 [2]): (442 vs. 305)
- HLA class I induction, mean fluorescence intensity (CNCM I-2547 [3]): (980 vs. 135)
- HLA class I induction, mean fluorescence intensity (CNCM I-2546 [4]): (521 vs. 257)
- proliferation inhibition (IC50) (CNCM I-2548 [5]): 10 U/ml
- proliferation inhibition (IC50) (CNCM I-2544 [6]): 100 U/ml
- proliferation inhibition (IC50) (CNCM I-2547 [7]): 10 U/ml
- proliferation inhibition (IC50) (CNCM I-2546 [8]): 100 U/ml
- expression of the genes encoding TAA (MART-1/Melan-A, pmel-17, TRP-2, tyrosinase) (melanoma cell lines): does not appear to influence
